Assay results taken from patent EP4707280A1, “1,4-CINEOLE DERIVATIVE AND INTERMEDIATE THEREOF, HERBICIDE CONTAINING SAID DERIVATIVE AS ACTIVE INGREDIENT, METHOD FOR USING HERBICIDE, AND METHOD FOR PREPARING AGROCHEMICAL COMPOSITION” (HOKKO CHEMICAL INDUSTRY CO., LTD., priority 2023, dated 2024).

What was measured:
Type in all cases: in vivo
[1] = tested on: Monochoria vaginalis; test: Test Example 2: herbicidal effect test by application during growth period of paddy rice; conditions: Pontederia vaginalis; 120 g per 10 ares; applied seven days after sowing, flooded pots; 14 days after application; read-out: weed inhibition rate
Procedure, shortened: (§1)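 Weeds sown into puddled, flooded paddy soil received a post-emergence water application of emulsifiable concentrate at 120 g active ingredient per 10 ares, seven days after sowing. Herbicidal effect was rated 14 days later as inhibition (%).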

[2] = tested on: Echinochloa crus-galli var. formosensis; test: as above; conditions: Echinochloa crus-galli; 120 g per 10 ares; applied seven days after sowing, flooded pots; 14 days after application; read-out: weed inhibition rate
Procedure, shortened: as §1

[3] = tested on: Scirpus juncoides; test: as above; conditions: Schoenoplectiella juncoides; 120 g per 10 ares; applied seven days after sowing, flooded pots; 14 days after application; read-out: weed inhibition rate
Procedure, shortened: as §1

[4] = tested on: Monochoria vaginalis; test: Test Example 5: herbicidal effect test by soil application in paddy rice (low dose); conditions: Pontederia vaginalis, 336 h, 7.5 g per 10 ares, applied immediately after sowing, flooded pots, 14 days after application, read-out: weed inhibition rate
Procedure, shortened: (§2)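 Pots of puddled, fertilized paddy soil receive 30 seeds per species at 0–1 cm depth and are flooded to about 3 cm. The diluted emulsifiable concentrate is then dropped onto the water, delivering 7.5 g active ingredient per 10 ares. Greenhouse grown; herbicidal effect scored 14 days later, two replicates.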

[5] = tested on: Scirpus juncoides; test: as above; conditions: Schoenoplectiella juncoides, 336 h, 7.5 g per 10 ares, applied immediately after sowing, flooded pots, 14 days after application, read-out: weed inhibition rate
Procedure, shortened: as §2

[6] = tested on: Echinochloa crus-galli var. formosensis; test: as above; conditions: Echinochloa crus-galli, soil, 336 h; 7.5 g per 10 ares; applied immediately after sowing, flooded pots; 14 days after application; read-out: weed inhibition rate
Procedure, shortened: as §2

[7] = tested on: Echinochloa crus-galli; test: Test Example 8: herbicidal effect test by stem and leaf treatment in upland field (low dose); conditions: Echinochloa crus-galli; 7.5 g per 10 ares; sprayed seven days after sowing, upland soil; 14 days after application; read-out: weed inhibition rate
[8] = tested on: Digitaria ciliaris; test: as above; conditions: Digitaria ciliaris; 7.5 g per 10 ares; sprayed seven days after sowing, upland soil; 14 days after application; read-out: weed inhibition rate
[9] = tested on: Echinochloa crus-galli; test: Test Example 4: herbicidal effect test by stem and leaf treatment in upland field; conditions: Echinochloa crus-galli; 120 g per 10 ares; sprayed seven days after sowing, upland soil; 14 days after application; read-out: weed inhibition rate
[10] = tested on: Echinochloa crus-galli var. formosensis; test: Test Example 1: herbicidal effect test by soil application in paddy rice; conditions: Echinochloa crus-galli, soil, 336 h; 120 g active ingredient per 10 ares; applied immediately after sowing, flooded pots; 14 days after application; read-out: weed inhibition rate
Procedure, shortened: (§3)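 Pre-emergence paddy soil application, 120 g a.i./10 a, emulsifiable concentrate diluted in water, applied by dropper right after sowing. Seeds (30/species) sown 0–1 cm in puddled, fertilized soil; flooded ~3 cm; glass greenhouse.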

[11] = tested on: Scirpus juncoides; test: as above; conditions: Schoenoplectiella juncoides, soil, 336 h; 120 g active ingredient per 10 ares; applied immediately after sowing, flooded pots; 14 days after application; read-out: weed inhibition rate
Procedure, shortened: as §3

[12] = tested on: Monochoria vaginalis; test: as above; conditions: Pontederia vaginalis, soil, 336 h; 120 g active ingredient per 10 ares; applied immediately after sowing, flooded pots; 14 days after application; read-out: weed inhibition rate
Procedure, shortened: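 Inhibition rate (%) read 14 days after treatment, duplicate pots. Water-diluted emulsifiable concentrate was applied by dropper at 120 g active ingredient/10 ares right after sowing. Seeds (30 per species, 0–1 cm deep) went into puddled paddy soil kept flooded at about 3 cm in a greenhouse.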

CO[C@H]1C[C@]2(C)O[C@@]1(C(C)C)C[C@H]2OCc1ccccc1F [1-156, (1S,2R,4R,5S)-2-((2-fluorobenzyl)oxy)-4-isopropyl-5-methoxy-1-methyl-7-oxabicyclo[2.2.1]heptane]
≥ 80%: inhibition at 1200 g/ha [1] | inhibition at 1200 g/ha [2] | inhibition at 1200 g/ha [3] | inhibition at 75 g/ha [4] | inhibition at 75 g/ha [5] | inhibition at 75 g/ha [6] | inhibition at 75 g/ha [7] | inhibition at 75 g/ha [8] | inhibition at 1200 g/ha [9] | pest or weed control at 1200 g/ha [10] | pest or weed control at 1200 g/ha [11] | pest or weed control at 1200 g/ha [12]

CC(C)[C@]12C[C@@H](OCc3ccc(F)cc3)[C@](C)(C[C@@H]1Br)O2 [1-691, (1S,2R,4R,5S)-5-bromo-2-[(4-fluorophenyl)methoxy]-1-methyl-4-isopropyl-7-oxabicyclo[2.2.1]heptane]
≥ 80%: inhibition at 1200 g/ha [1] | inhibition at 1200 g/ha [2] | inhibition at 1200 g/ha [3] | inhibition at 75 g/ha [4] | inhibition at 75 g/ha [5] | inhibition at 75 g/ha [6] | inhibition at 75 g/ha [7] | inhibition at 75 g/ha [8] | inhibition at 1200 g/ha [9] | pest or weed control at 1200 g/ha [10] | pest or weed control at 1200 g/ha [11] | pest or weed control at 1200 g/ha [12]

CC(C)[C@]12C[C@@H](OCc3c(F)cccc3Cl)[C@](C)(CC1=O)O2 [2-28, (1R,4S,5R)-5-((2-chloro-6-fluorobenzyl)oxy)-1-isopropyl-4-methyl-7-oxabicyclo[2.2.1]heptan-2-one]
≥ 80%: inhibition at 1200 g/ha [1] | inhibition at 1200 g/ha [2] | inhibition at 1200 g/ha [3] | inhibition at 75 g/ha [4] | inhibition at 75 g/ha [5] | inhibition at 75 g/ha [6] | inhibition at 75 g/ha [7] | inhibition at 75 g/ha [8] | inhibition at 1200 g/ha [9] | pest or weed control at 1200 g/ha [10] | pest or weed control at 1200 g/ha [11] | pest or weed control at 1200 g/ha [12]

CC(C)[C@]12C[C@@H](OCc3ccccc3Br)[C@](C)(CC1=O)O2 [2-13, (1R,4S,5R)-5-((2-bromobenzyl)oxy)-1-isopropyl-4-methyl-7-oxabicyclo[2.2.1]heptan-2-one]
≥ 80%: inhibition at 1200 g/ha [1] | inhibition at 1200 g/ha [2] | inhibition at 1200 g/ha [3] | inhibition at 75 g/ha [4] | inhibition at 75 g/ha [5] | inhibition at 75 g/ha [6] | inhibition at 75 g/ha [7] | inhibition at 75 g/ha [8] | inhibition at 1200 g/ha [9] | pest or weed control at 1200 g/ha [10] | pest or weed control at 1200 g/ha [11] | pest or weed control at 1200 g/ha [12]

C#CCO[C@@H]1C[C@]2(C)O[C@@]1(C(C)C)C[C@H]2OCc1ccccc1F [1-931, (1S,2R,4R,5R)-2-[(2-fluorophenyl)methoxy]-1-methyl-4-isopropyl-5-prop-2-ynoxy-7-oxabicyclo[2.2.1]heptane]
≥ 80%: inhibition at 1200 g/ha [1] | inhibition at 1200 g/ha [2] | inhibition at 1200 g/ha [3] | inhibition at 75 g/ha [4] | inhibition at 75 g/ha [5] | inhibition at 75 g/ha [6] | inhibition at 75 g/ha [7] | inhibition at 75 g/ha [8] | inhibition at 1200 g/ha [9] | pest or weed control at 1200 g/ha [10] | pest or weed control at 1200 g/ha [11] | pest or weed control at 1200 g/ha [12]

C=C1C[C@]2(C)O[C@@]1(C(C)C)C[C@H]2OCc1ccccc1F [2-88, (1R,4S,5R)-5-((2-fluorobenzyl)oxy)-1-isopropyl-4-methyl-2-methylene-7-oxabicyclo[2.2.1]heptane]
≥ 80%: inhibition at 1200 g/ha [1] | inhibition at 1200 g/ha [2] | inhibition at 1200 g/ha [3] | inhibition at 75 g/ha [4] | inhibition at 75 g/ha [5] | inhibition at 75 g/ha [6] | inhibition at 75 g/ha [7] | inhibition at 75 g/ha [8] | inhibition at 1200 g/ha [9] | pest or weed control at 1200 g/ha [10] | pest or weed control at 1200 g/ha [11] | pest or weed control at 1200 g/ha [12]

CC(C)[C@]12C[C@@H](OCc3ccccc3Cl)[C@](C)(C[C@@H]1Br)O2 [1-20, (1S,2R,4R,5S)-5-bromo-2-[(2-chlorophenyl)methoxy]-1-methyl-4-isopropyl-7-oxabicyclo[2.2.1]heptane]
≥ 80%: inhibition at 1200 g/ha [1] | inhibition at 1200 g/ha [2] | inhibition at 1200 g/ha [3] | inhibition at 75 g/ha [4] | inhibition at 75 g/ha [5] | inhibition at 75 g/ha [6] | inhibition at 75 g/ha [7] | inhibition at 75 g/ha [8] | inhibition at 1200 g/ha [9] | pest or weed control at 1200 g/ha [10] | pest or weed control at 1200 g/ha [11] | pest or weed control at 1200 g/ha [12]

CC(C)[C@]12C[C@@H](OCc3ccccc3F)[C@](C)(CC1=O)O2 [2-9, (1R,4S,5R)-5-((2-fluorobenzyl)oxy)-1-isopropyl-4-methyl-7-oxabicyclo[2.2.1]heptan-2-one]
≥ 80%: inhibition at 1200 g/ha [1] | inhibition at 1200 g/ha [2] | inhibition at 1200 g/ha [3] | inhibition at 75 g/ha [4] | inhibition at 75 g/ha [5] | inhibition at 75 g/ha [6] | inhibition at 75 g/ha [7] | inhibition at 75 g/ha [8] | inhibition at 1200 g/ha [9] | pest or weed control at 1200 g/ha [10] | pest or weed control at 1200 g/ha [11] | pest or weed control at 1200 g/ha [12]

CC(C)[C@]12C[C@@H](OCc3ccccc3F)[C@](C)(C[C@@H]1OCC1CC1)O2 [1-1603, (1S,2R,4R,5S)-5-(cyclopropylmethoxy)-2-[(2-fluorophenyl)methoxy]-1-methyl-4-isopropyl-7-oxabicyclo[2.2.1]heptane]
≥ 80%: inhibition at 1200 g/ha [1] | inhibition at 1200 g/ha [2] | inhibition at 1200 g/ha [3] | inhibition at 75 g/ha [4] | inhibition at 75 g/ha [5] | inhibition at 75 g/ha [6] | inhibition at 75 g/ha [7] | inhibition at 75 g/ha [8] | inhibition at 1200 g/ha [9] | pest or weed control at 1200 g/ha [10] | pest or weed control at 1200 g/ha [11] | pest or weed control at 1200 g/ha [12]

CC(C)C12CC(OCc3ccccc3F)C(C)(CC1Br)O2 (stereo not drawn) [1-1355, 5-bromo-2-[(2-fluorophenyl)methoxy]-1-methyl-4-isopropyl-7-oxabicyclo[2.2.1]heptane]
≥ 80%: inhibition at 1200 g/ha [1] | inhibition at 1200 g/ha [2] | inhibition at 1200 g/ha [3] | inhibition at 75 g/ha [4] | inhibition at 75 g/ha [5] | inhibition at 75 g/ha [6] | inhibition at 75 g/ha [7] | inhibition at 75 g/ha [8] | inhibition at 1200 g/ha [9] | pest or weed control at 1200 g/ha [10] | pest or weed control at 1200 g/ha [11] | pest or weed control at 1200 g/ha [12]

CCO[C@H]1C[C@]2(C)O[C@@]1(C(C)C)C[C@H]2OCc1ccccc1F [1-183, (1S,2R,4R,5S)-5-ethoxy-2-[(2-fluorophenyl)methoxy]-1-methyl-4-isopropyl-7-oxabicyclo[2.2.1]heptane]
≥ 80%: inhibition at 1200 g/ha [1] | inhibition at 1200 g/ha [2] | inhibition at 1200 g/ha [3] | inhibition at 75 g/ha [4] | inhibition at 75 g/ha [5] | inhibition at 75 g/ha [6] | inhibition at 75 g/ha [7] | inhibition at 75 g/ha [8] | inhibition at 1200 g/ha [9] | pest or weed control at 1200 g/ha [10] | pest or weed control at 1200 g/ha [11] | pest or weed control at 1200 g/ha [12]
